Measurements from the NIST ThermoML archive (doi:10.1016/j.jct.2019.02.028).

Assay: xn = mol fraction of the nth substance listed
Settings: Gas, Burnett expansion method

C=C(F)C(F)(F)F [2,3,3,3-tetrafluoro-1-propene] + FCF
Settings	mass density [kg/m3]
333.59 K, 860.21 kPa, x2 = 0.698	23.99
333.59 K, 1119 kPa, x2 = 0.259	46.7
333.59 K, 1128.1 kPa, x2 = 0.449	40.52
333.59 K, 1537.9 kPa, x2 = 0.259	70.09
333.6 K, 552.32 kPa, x2 = 0.874	12.52
333.6 K, 589.81 kPa, x2 = 0.698	15.97
333.61 K, 804.94 kPa, x2 = 0.874	18.8
333.61 K, 1164.8 kPa, x2 = 0.874	28.24
333.61 K, 1308.2 kPa, x2 = 0.119	63.18
333.64 K, 1653.6 kPa, x2 = 0.874	42.42
338.52 K, 549.73 kPa, x2 = 0.449	17.96
338.52 K, 1260 kPa, x2 = 0.698	36.03
338.52 K, 1772.2 kPa, x2 = 0.698	54.11
338.52 K, 2408.6 kPa, x2 = 0.698	81.28
338.53 K, 875.76 kPa, x2 = 0.698	23.99
338.53 K, 960.84 kPa, x2 = 0.119	42.01
338.53 K, 1150.8 kPa, x2 = 0.449	40.51
338.53 K, 2177.3 kPa, x2 = 0.449	91.55
338.54 K, 554.13 kPa, x2 = 0.259	20.7
338.54 K, 801.95 kPa, x2 = 0.449	26.97
338.54 K, 1788.2 kPa, x2 = 0.119	94.94
338.54 K, 2337.3 kPa, x2 = 0.874	63.7
338.54 K, 3099.5 kPa, x2 = 0.698	122
338.54 K, 3099.9 kPa, x2 = 0.874	96.05
338.54 K, 3850.5 kPa, x2 = 0.874	144.78
338.55 K, 671.73 kPa, x2 = 0.119	27.97
338.55 K, 1615.3 kPa, x2 = 0.449	60.93
338.55 K, 1689.4 kPa, x2 = 0.874	42.41
338.56 K, 599.87 kPa, x2 = 0.698	15.97
338.56 K, 803.81 kPa, x2 = 0.259	31.09
338.56 K, 1143.1 kPa, x2 = 0.259	46.69
338.56 K, 1187 kPa, x2 = 0.874	28.23
338.56 K, 1577.4 kPa, x2 = 0.259	70.08
338.56 K, 2083.1 kPa, x2 = 0.259	105.4
338.57 K, 819.08 kPa, x2 = 0.874	18.8
338.57 K, 1339.9 kPa, x2 = 0.119	63.15
338.61 K, 561.65 kPa, x2 = 0.874	12.52
343.46 K, 1811.6 kPa, x2 = 0.698	54.1
343.47 K, 558.86 kPa, x2 = 0.449	17.95
343.47 K, 2473.8 kPa, x2 = 0.698	81.25
343.48 K, 1650.8 kPa, x2 = 0.449	60.9
343.48 K, 3195 kPa, x2 = 0.874	95.98
343.49 K, 609.66 kPa, x2 = 0.698	15.97
343.49 K, 980.04 kPa, x2 = 0.119	42
343.49 K, 1173.6 kPa, x2 = 0.449	40.5
343.49 K, 1284.8 kPa, x2 = 0.698	36.02
343.5 K, 815.99 kPa, x2 = 0.449	26.96
343.5 K, 1724.4 kPa, x2 = 0.874	42.4
343.5 K, 1840.8 kPa, x2 = 0.119	94.9
343.5 K, 2238.7 kPa, x2 = 0.449	91.51
343.5 K, 2312 kPa, x2 = 0.119	142.7
343.5 K, 3209.6 kPa, x2 = 0.698	121.97
343.51 K, 683.81 kPa, x2 = 0.119	27.96
343.51 K, 891.35 kPa, x2 = 0.698	23.98
343.51 K, 1370.9 kPa, x2 = 0.119	63.13
343.51 K, 1616.3 kPa, x2 = 0.259	70.08
343.51 K, 2395 kPa, x2 = 0.874	63.68
343.51 K, 2864.8 kPa, x2 = 0.449	137.45
343.51 K, 4012.3 kPa, x2 = 0.874	144.62
343.52 K, 1167 kPa, x2 = 0.259	46.68
343.52 K, 2146.2 kPa, x2 = 0.259	105.38
343.54 K, 563.91 kPa, x2 = 0.259	20.69
343.54 K, 833.17 kPa, x2 = 0.874	18.79
343.54 K, 1209.2 kPa, x2 = 0.874	28.23
343.55 K, 818.98 kPa, x2 = 0.259	31.08
343.56 K, 570.8 kPa, x2 = 0.874	12.51
348.39 K, 1850.8 kPa, x2 = 0.698	54.08
348.42 K, 568.01 kPa, x2 = 0.449	17.95
348.42 K, 1308.9 kPa, x2 = 0.698	36.01
348.42 K, 2538.2 kPa, x2 = 0.698	81.23
348.43 K, 695.54 kPa, x2 = 0.119	27.95
348.43 K, 1196 kPa, x2 = 0.449	40.49
348.43 K, 3289.2 kPa, x2 = 0.874	95.91
348.44 K, 619.54 kPa, x2 = 0.698	15.96
348.45 K, 906.67 kPa, x2 = 0.698	23.97
348.45 K, 999.4 kPa, x2 = 0.119	41.99
348.45 K, 1401.8 kPa, x2 = 0.119	63.11
348.45 K, 1687.6 kPa, x2 = 0.449	60.87
348.45 K, 1759.4 kPa, x2 = 0.874	42.38
348.45 K, 1892.6 kPa, x2 = 0.119	94.85
348.45 K, 2299.3 kPa, x2 = 0.449	91.46
348.45 K, 2405.8 kPa, x2 = 0.119	142.61
348.45 K, 3317.7 kPa, x2 = 0.698	121.94
348.46 K, 573.31 kPa, x2 = 0.259	20.69
348.46 K, 830.53 kPa, x2 = 0.449	26.96
348.46 K, 1654.8 kPa, x2 = 0.259	70.07
348.46 K, 2452 kPa, x2 = 0.874	63.66
348.46 K, 2967.9 kPa, x2 = 0.449	137.38
348.47 K, 833.57 kPa, x2 = 0.259	31.08
348.47 K, 847.11 kPa, x2 = 0.874	18.79
348.47 K, 1190.6 kPa, x2 = 0.259	46.68
348.47 K, 2210.4 kPa, x2 = 0.259	105.36
348.47 K, 4171.1 kPa, x2 = 0.874	144.45
348.48 K, 1231.2 kPa, x2 = 0.874	28.22
348.51 K, 579.9 kPa, x2 = 0.874	12.51
353.35 K, 1889.8 kPa, x2 = 0.698	54.07
353.37 K, 1218.4 kPa, x2 = 0.449	40.48
353.37 K, 2601.9 kPa, x2 = 0.698	81.21
353.38 K, 577.17 kPa, x2 = 0.449	17.94
353.38 K, 1943.6 kPa, x2 = 0.119	94.8
353.38 K, 3382.4 kPa, x2 = 0.874	95.84
353.39 K, 629.39 kPa, x2 = 0.698	15.96
353.39 K, 707.68 kPa, x2 = 0.119	27.94
353.39 K, 922.11 kPa, x2 = 0.698	23.97
353.39 K, 1432.5 kPa, x2 = 0.119	63.08
353.39 K, 1723.8 kPa, x2 = 0.449	60.85
353.39 K, 2359.1 kPa, x2 = 0.449	91.42
353.39 K, 3068.7 kPa, x2 = 0.449	137.31
353.4 K, 582.53 kPa, x2 = 0.259	20.69
353.4 K, 844.78 kPa, x2 = 0.449	26.95
353.4 K, 1018.6 kPa, x2 = 0.119	41.97
353.4 K, 1333.5 kPa, x2 = 0.698	36
353.4 K, 1794.1 kPa, x2 = 0.874	42.37
353.4 K, 2493.2 kPa, x2 = 0.119	142.52
353.4 K, 2508.3 kPa, x2 = 0.874	63.64
353.4 K, 3424.3 kPa, x2 = 0.698	121.92
353.41 K, 1213.9 kPa, x2 = 0.259	46.67
353.41 K, 1693 kPa, x2 = 0.259	70.07
353.41 K, 2895.5 kPa, x2 = 0.259	158.94
353.41 K, 4232.8 kPa, x2 = 0.698	183.2
353.41 K, 4326.6 kPa, x2 = 0.874	144.29
353.42 K, 848.3 kPa, x2 = 0.259	31.07
